Experimental data published in US9809853B2, “Calcium-activated chloride channel involved in human sweat formation” (BRAIN Biotechnology Research and Information Network AG, priority 2012, dated 2017).

Assays:
[1] = target: T1, CaCC (Ca^2+-activated chloride channels) in NCL-SG3-hsYFP cells (Homo sapiens, UniProt Q5XXA6); assay: hsYFP fluorescence quenching (Cl^− efflux/I^− influx) assay in NCL-SG3-hsYFP CaCC activity sensor cells; format: cell-based; details: for Effect on hsYFP quenching by Cl^− efflux/I^− influx mediated by ATP: 25 μM; for Dose dependence of inhibition of CaCC-mediated Cl^− efflux: increasing inhibitor concentrations, stimulation with 330 μM ATP
T1 sequence (Q5XXA6 1-986): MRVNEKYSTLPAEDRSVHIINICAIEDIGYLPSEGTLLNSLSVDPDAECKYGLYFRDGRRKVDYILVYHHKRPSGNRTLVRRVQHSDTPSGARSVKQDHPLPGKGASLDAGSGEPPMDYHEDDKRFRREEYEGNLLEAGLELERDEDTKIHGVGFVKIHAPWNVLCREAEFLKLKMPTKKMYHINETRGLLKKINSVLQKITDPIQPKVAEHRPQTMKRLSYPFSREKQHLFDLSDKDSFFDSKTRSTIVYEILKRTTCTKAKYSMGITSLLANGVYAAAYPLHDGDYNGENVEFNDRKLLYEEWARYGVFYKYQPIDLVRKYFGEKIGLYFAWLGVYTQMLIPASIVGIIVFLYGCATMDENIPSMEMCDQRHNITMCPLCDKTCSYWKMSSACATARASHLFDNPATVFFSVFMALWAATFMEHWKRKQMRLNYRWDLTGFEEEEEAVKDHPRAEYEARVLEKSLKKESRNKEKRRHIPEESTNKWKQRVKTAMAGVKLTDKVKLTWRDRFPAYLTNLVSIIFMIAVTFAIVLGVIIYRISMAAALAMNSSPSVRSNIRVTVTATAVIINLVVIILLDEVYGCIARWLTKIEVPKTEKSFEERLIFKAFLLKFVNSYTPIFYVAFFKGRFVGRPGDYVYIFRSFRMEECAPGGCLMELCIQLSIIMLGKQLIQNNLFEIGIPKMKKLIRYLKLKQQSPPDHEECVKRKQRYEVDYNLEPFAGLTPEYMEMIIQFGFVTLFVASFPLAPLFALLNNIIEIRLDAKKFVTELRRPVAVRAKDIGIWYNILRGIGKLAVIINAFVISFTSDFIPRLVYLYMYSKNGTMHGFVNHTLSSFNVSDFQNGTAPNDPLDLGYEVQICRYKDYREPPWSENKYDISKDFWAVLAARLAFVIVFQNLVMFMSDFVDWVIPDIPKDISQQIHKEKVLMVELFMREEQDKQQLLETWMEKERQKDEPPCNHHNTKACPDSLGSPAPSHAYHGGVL
Description: The halide inside the cell functionally interacts with the halide-sensitive cytoplasmic indicator protein, which leads to a quenching of the signal provided by the halide-sensitive cytoplasmic indicator protein. The more halide (such as e.g. iodide) flows into the cell, the weaker the signal emitted by the halide-sensitive cytoplasmic indicator protein becomes. This alteration of the signal emitted by the halide-sensitive cytoplasmic indicator protein is determined in a third step of the method of the invention. Due to the fact that the influx of halide into the cell is proportional to the efflux of chloride ions, the halide influx is used as a direct measure for chloride secretion. To determine the amount of chloride secretion, the fluorescence decrease is plotted against time (Δfluorescence/Δtime) and the initial slope of the resulting graph represents the iodide influx rate (sec^−1), which in turn is directly proportional to the chloride efflux rate, representing the amount of chloride secretion per time. In a fourth step, this amount of chloride secretion determined in the presence of a test compound is compared to the amount of chloride secretion determined in the absence of a said compound.
Effect of CaCC inhibitors on sweat gland-specific Ca^2+-dependent […] and proportional I^− influx was determined using NCL-SG3-hsYFP cells. Quenching of intracellular hsYFP fluorescence was measured and plotted over time. Exemplary raw data (B) and fitted curves are shown (A). NCL-SG3-hsYFP cells were incubated with 50 μM tannic acid (TA), 25 μM niflumic acid (NFA), 25 μM 5-nitro-2-(3-phenylpropyl-amino) benzoic acid (NPPB), 100 μM epigallocatechin-3-gallate (EGCG) for 15 min and then stimulated with 330 μM ATP.
Sweat gland-specific Ca^2+-dependent Cl^− efflux and a proportional I^− influx was determined using NCL-SG3-hsYFP cells. Quenching of intracellular hsYFP fluorescence was measured and plotted over time. Exemplary fitted curves are shown. NCL-SG3-hsYFP cells were incubated with increasing concentrations of tannic acid (TA) and then stimulated with 330 μM ATP. […] NCL-SG3-hsYFP cells were incubated with increasing concentrations of CaCC inhibitors and quenching of intracellular hsYFP fluorescence was measured after stimulation with ATP. The rate of […] (sec^−1), which is proportional to Ca^2+-dependent […] was calculated from the initial slope of the measured hsYFP fluorescence (ΔYFP fluorescence/Δtime) and is a direct measure of CaCC activity. IC50 values were determined by plotting the percentage of residual CaCC activity against the individual inhibitor concentration.
NCL-SG3-hsYFP cells were routinely cultivated in Williams' Medium E supplemented with 9% Fetal Calf Serum, 3.5 mM Glutamine, 9 ng/μl Hydrocortisone, Insulin-Transferrin-Selenium-Supplement (PAA Laboratories) at 37° C. and 5% CO2. For microplate assays, 20,000 cells were seeded in 96-well black-walled, clear bottom microplates (Costar) and cultivated for 2 days until cells reached confluency. Cells were washed three times with 100 μl modified Krebs-Henseleit (KH) buffer (137 mM NaCl, 2.7 mM KCl, 1.2 mM MgSO4, 1.2 mM KH2PO4, 4.2 mM NaHCO3, 1.3 mM CaCl2, 10 mM HEPES, pH 7.4) and incubated with the test compound in 50 μl KH-buffer for 15 min at 37° C. and 5% CO2. Microplates were transferred into an automated fluorescence plate reader (FlexStation®, Molecular Devices) and cellular hsYFP fluorescence was continuously recorded every 3.5 sec until end of the experiment (excitation at 485 nm, emission at 535 nm, cutoff 515 nm).

[2] = tested on: CaCCs in human colonic epithelial cells; details: reference (44); cited from earlier work

Compound | Quenching of hsYFP fluorescence after addition of Ca^2+-elevating agent ([1]; 1 μM) | Effect on hsYFP quenching by Cl^− efflux/I^− influx mediated by ATP ([1]; 15 min, then 330 μM ATP) | Dose dependence of inhibition of CaCC-mediated Cl^− efflux [1] | Inhibition of CaCCs / Cl^− currents [2] | Effect on CaCC-mediated Cl^− efflux (hsYFP quenching) mediated by ATP ([1]; 100 μM, 15 min, then 330 μM ATP)
C[C@H](CCC(=O)O)C[C@H](C)C[C@H](C)C(=O)/C=C(\O)[C@H](C)C[C@H](C)C/C=C/[C@@H](C)[C@@H](O)[C@@H](C)[C@@H](O)C[C@@H]1CC[C@@](C)([C@H]2CC[C@@](C)([C@@H](C)O)O2)O1 [ionomycin] | quick quenching of the hsYFP fluorescence followed by a slow recovery |  |  |  | 
O=C(O)c1cc([N+](=O)[O-])ccc1NCCCc1ccccc1 [NPPB, 5-nitro-2-(3-phenylpropyl-amino) benzoic acid] |  | significant reduction of hsYFP quenching | antagonized CaCC-mediated Cl^− efflux in a dose-dependent manner |  | 
epigallocatechin-3-gallate [EGCG] |  |  |  | effectively inhibits | no effect
O=C(O)c1cccnc1Nc1cccc(C(F)(F)F)c1 [NFA, niflumic acid] |  | significant reduction of hsYFP quenching | antagonized CaCC-mediated Cl^− efflux in a dose-dependent manner |  | 
